Measurements taken from patent publication US10172857B2, “Boosting the effect of methotrexate through the combined use with lipophilic statins” (Dalana3, S.L., priority 2013, dated 2019).

Assays:
Type in all cases: cell-based, human
[1] = test system: osteosarcoma cells (HOS); test: Cell viability test, trypan blue staining and counting in Neubauer chamber; conditions: for morphological changes: 0.5 μM simvastatin, 50 nM methotrexate or both, 48 and 72 hours; for effect on cell proliferation and cell death (trypan blue counts): FIGS. 6-10
Protocol: The HOS cells are cultivated in a culture medium supplemented with 5-10% heat-inactivated foetal bovine serum and 2 mM of L-glutamine, at 37° C., 95% humidity and 5% atmospheric CO2. The cells are treated with 0.5 μM of simvastatin and with 50 nM of MTX for 24, 48 and 72 hours. The cells are collected by trypsinization. This involves first aspirating the cultivation medium; the cells are then washed with 2-3 mL of PBS (sterile); add 0.5-1 mL of trypsin-EDTA solution (sterile); incubated at 37° for 5 minutes; the cells are collected with 5 mL of fresh culture medium; and the suspension is placed in a sterile 15 mL tube. The trypan blue dye is used in order to determine cell viability. Trypan blue is a colloid that enters the cells through breaks in the cell membrane. Therefore, the cells that appear in the image, clearly stained blue, are considered to be non-viable. For the measurement, mix 50 μL of the trypan blue solution and 50 μL of cell suspension are placed in a 1.5 mL tube. The mixture is homogenised and 10 μL placed in a Neubauer chamber. The total cells and the non-viable cells (completely stained blue) are counted.

[2] = test system: HOS cells; test: Apoptosis testing by flow cytometry (SubG0 peak); conditions: 48 hours
[3] = test system: HOS cells; test: Analysis of the cell cycle by flow cytometry (PI); conditions: for changes in the distribution of the cell cycle (summary): FIGS. 11-15; for changes in the cell cycle with increasing doses: MTX 10-200 nM or SV 0.2-10 μM
Protocol: In order to analyse the changes in the distribution of the cell cycle the cells are seeded and treated under the same conditions employed with the Annexin V dye. The treated and untreated cells are resuspended in NP-40 at 1% dissolved in PBS additionally containing 50 μg/mL PI at a density of 3×10^5 cells/sample. The analysis and quantification of each of the experimental conditions is then carried out after 15 minutes incubation in the dark and at ambient temperature, following the same methodology as employed in the apoptosis experiments with Annexin-V staining (FACSCalibur flow cytometry and Cell Quest software).

[4] = HOS cells, SV 1 μM alone, 24 hours

| Structure (SMILES) | morphological changes [1] | effect on cell proliferation and cell death (trypan blue counts) [1] | SV concentration at appearance of the SubG0 peak (cell death by apoptosis) ([2]; SV 0.2-10 μM tested) [µM] | SV concentration at maximum of the SubG0 peak ([2]; SV 0.2-10 μM tested) [µM] | number of cells quantified in the SubG0 phase ([2]; doses above 0.2 μM SV) | changes in the distribution of the cell cycle (summary) [3] | changes in the cell cycle with increasing doses ([3]; HOS cells, 24 hours) | decrease of the G1 phase compared to the control [3, 4] [%] | increase of cells in the G2/M phase compared to the control [3, 4] [%] | MTX concentration at incipient appearance of the SubG0 peak (cell death by apoptosis) ([2]; MTX 10-200 nM tested) [NM] | number of cells quantified in the SubG0 phase ([2]; doses above 50 nM of MTX) |
| --- | --- | --- | --- | --- | --- | --- | --- | --- | --- | --- | --- |
| CCC(C)(C)C(=O)O[C@H]1C[C@@H](C)C=C2C=C[C@H](C)[C@H](CC[C@@H]3C[C@@H](O)CC(=O)O3)[C@H]21 [SV, simvastatin] | rounded cells | predominant effect on the induction of cell death | < 0.2 | 10 | notable increase | halts the cycle in phase G2/M | decrease in the S phase and in the number of cells in phase G1 is notable, with subsequent accumulation in the phase G2/M | 19.60 | 40.92 |  |  |
| CN(Cc1cnc2nc(N)nc(N)c2n1)c1ccc(C(=O)N[C@@H](CCC(=O)O)C(=O)O)cc1 [MTX, (2S)-2-[(4-{[(2,4-diaminopteridin-6-yl)methyl](methyl)amino}benzoyl)amino]pentanedioic acid] | enlarged cells and even those with two nuclei | preferentially acts to slow cell proliferation |  |  |  | halt in the cycle in phase G1 | decrease in the S phase and in the number of cells in phase G2/M, with subsequent accumulation in the phase G1 |  |  | 20 | significant increase |
